In ChEMBL document CHEMBL5532681, “Cannabidiol Inhibits Epithelial Ovarian Cancer: Role of Gut Microbiome” (J Nat Prod, 2024):
Activity calls are given as the source filed them. The calls are words filed in the database; no cut-off is given here.

How the values were obtained:
A2780 [1] = assay: Antitumor activity against human A2780 cells xenografted in BALB/c female nude mouse assessed as decrease in tumor weight at 10 to 20 mg/kg, ip administered on day 24 and measured every other day for 45 days; format: functional, organism-based; conditions: dose 10-20 mg/kg, time 45.0 day
A2780 [2] = assay: Antiproliferative activity against human A2780 cells assessed as decrease in cell viability incubated for 24 to 72 hrs by CCK-8 assay; format: functional, cell-based; conditions: time 24-72 hrs
A2780 [3] = assay: Antiproliferative activity against human A2780 cells assessed as decrease in cell viability at 3 to 12 uM by CCK-8 assay; format: functional, cell-based; conditions: dose 3-12 µM, TDE = time-dependent effect
ES-2 [4] = assay: Antiproliferative activity against human ES2 cells assessed as decrease in cell viability incubated for 24 to 72 hrs by CCK-8 assay; format: functional, cell-based; conditions: time 24-72 hrs
ES-2 [5] = assay: Antiproliferative activity against human ES2 cells assessed as decrease in cell viability at 3 to 12 uM by CCK-8 assay; format: functional, cell-based; conditions: dose 3-12 µM, TDE = time-dependent effect
A2780 [6] = assay: Antiproliferative activity against human A2780 cells assessed as decrease in cell viability at 3 to 12 uM incubated for 24 hrs by crystal violet staining based assay; format: functional; conditions: dose 3-12 µM
ES-2 [7] = assay: Antiproliferative activity against human ES2 cells assessed as decrease in cell viability at 3 to 12 uM incubated for 24 hrs by crystal violet staining based assay; format: functional; conditions: dose 3-12 µM
A2780 [8] = assay: Antiproliferative activity against human A2780 cells assessed as decrease in cell viability at 12 uM incubated for 24 hrs by crystal violet staining based assay relative to control; format: functional
ES-2 [9] = assay: Antiproliferative activity against human ES2 cells assessed as decrease in cell viability at 12 uM incubated for 24 hrs by crystal violet staining based assay relative to control; format: functional
A2780 [10] = assay: Inhibition of cell migration in human A2780 cells assessed as decrease in migration distance at 3 uM incubated for 24 hrs by wound healing assay relative to control; format: functional; design: scale not given: the % may be the effect or the level left
A2780 [11] = assay: Inhibition of cell migration in human A2780 cells assessed as decrease in migration distance at 6 uM incubated for 24 hrs by wound healing assay relative to control; format: functional; design: scale not given: the % may be the effect or the level left
A2780 [12] = assay: Inhibition of cell migration in human A2780 cells assessed as decrease in migration distance at 12 uM incubated for 24 hrs by wound healing assay relative to control; format: functional; design: scale not given: the % may be the effect or the level left
ES-2 [13] = assay: Inhibition of cell migration in human ES2 cells assessed as decrease in migration distance at 3 uM incubated for 24 hrs by wound healing assay relative to control; format: functional; design: scale not given: the % may be the effect or the level left
ES-2 [14] = assay: Inhibition of cell migration in human ES2 cells assessed as decrease in migration distance at 6 uM incubated for 24 hrs by wound healing assay relative to control; format: functional; design: scale not given: the % may be the effect or the level left
ES-2 [15] = assay: Inhibition of cell migration in human ES2 cells assessed as decrease in migration distance at 12 uM incubated for 24 hrs by wound healing assay relative to control; format: functional; design: scale not given: the % may be the effect or the level left
A2780 [16] = assay: Inhibition of cell invasion in human A2780 cells assessed as decrease in invasion rate at 3 uM incubated for 48 hrs by transwell assay; format: functional; design: scale not given: the % may be the effect or the level left
A2780 [17] = assay: Inhibition of cell invasion in human A2780 cells assessed as decrease in invasion rate at 6 uM incubated for 48 hrs by transwell assay; format: functional; design: scale not given: the % may be the effect or the level left
A2780 [18] = assay: Inhibition of cell invasion in human A2780 cells assessed as decrease in invasion rate at 12 uM incubated for 48 hrs by transwell assay; format: functional; design: scale not given: the % may be the effect or the level left
ES-2 [19] = assay: Inhibition of cell invasion in human ES2 cells assessed as decrease in invasion rate 3 uM incubated for 48 hrs by transwell assay; format: functional; design: scale not given: the % may be the effect or the level left
ES-2 [20] = assay: Inhibition of cell invasion in human ES2 cells assessed as decrease in invasion rate at 6 uM incubated for 48 hrs by transwell assay; format: functional; design: scale not given: the % may be the effect or the level left
ES-2 [21] = assay: Inhibition of cell invasion in human ES2 cells assessed as decrease in invasion rate at 12 uM incubated for 48 hrs by transwell assay; format: functional; design: scale not given: the % may be the effect or the level left
A2780 [22] = assay: Downregulation of AKT expression in human A2780 cells by Westernblot analysis; format: functional, cell-based
A2780 [23] = assay: Downregulation of EGFR expression in human A2780 cells by Westernblot analysis; format: functional, cell-based
A2780 [24] = assay: Downregulation of MMP-2 expression in human A2780 cells by Westernblot analysis; format: functional, cell-based
A2780 [25] = assay: Downregulation of MMP-9 expression in human A2780 cells by Westernblot analysis; format: functional, cell-based
ES-2 [26] = assay: Downregulation of AKT expression in human ES2 cells by Westernblot analysis; format: functional, cell-based
ES-2 [27] = assay: Downregulation of EGFR expression in human ES2 cells by Westernblot analysis; format: functional, cell-based
ES-2 [28] = assay: Downregulation of MMP-2 expression in human ES2 cells by Westernblot analysis; format: functional, cell-based
ES-2 [29] = assay: Downregulation of MMP-9 expression in human ES2 cells by Westernblot analysis; format: functional, cell-based
[30] = Downregulation of EGFR expression in human A2780 cells at 12 uM by Westernblot analysis relative to control; format: functional
[31] = Downregulation of MMP-2 expression in human A2780 cells at 12 uM by Westernblot analysis relative to control; format: functional
[32] = Downregulation of MMP-9 expression in human A2780 cells at 12 uM by Westernblot analysis relative to control; format: functional
[33] = Downregulation of EGFR expression in human ES2 cells at 12 uM by Westernblot analysis relative to control; format: functional, ES-2
[34] = Downregulation of MMP-2 expression in human ES2 cells at 12 uM by Westernblot analysis relative to control; format: functional, ES-2
[35] = Downregulation of MMP-9 expression in human ES2 cells at 12 uM by Westernblot analysis relative to control; format: functional, ES-2
A2780 [36] = assay: Antitumor activity against human A2780 cells xenografted in BALB/c female nude mouse assessed as decrease in body weight at 10 to 20 mg/kg, ip administered on day 24 and measured every other day for 45 days; format: functional, organism-based; conditions: dose 10-20 mg/kg, time 45.0 day
A2780 [37] = assay: Antitumor activity against human A2780 cells xenografted in BALB/c female nude mouse assessed as decrease in tumor growth rate at 10 to 20 mg/kg, ip administered on day 24 and measured every other day for 45 days; format: functional, organism-based; conditions: dose 10-20 mg/kg, time 45.0 day
A2780 [38] = assay: Antitumor activity against human A2780 cells xenografted in BALB/c female nude mouse assessed as decrease in tumor volume at 10 to 20 mg/kg, ip administered on day 24 and measured every other day for 45 days; format: functional, organism-based; conditions: dose 10-20 mg/kg, time 45.0 day
[39] = Toxicity in human A2780 cells xenografted in BALB/c female nude mouse assessed as effect on spleen index at 10 to 20 mg/kg, ip administered on day 24 and measured every other day for 45 days; format: organism-based; conditions: in vivo, 1080 h, dose 10-20 mg/kg, time 45 day
[40] = Toxicity in human A2780 cells xenografted in BALB/c female nude mouse assessed as effect on body weight at 10 to 20 mg/kg, ip administered on day 24 and measured every other day for 45 days; format: organism-based; conditions: in vivo, 1080 h, dose 10-20 mg/kg, time 45 day
A2780 [41] = assay: Antitumor activity against human A2780 cells xenografted in BALB/c female nude mouse assessed as disordered tumor cells at 10 to 20 mg/kg, ip administrated for 28 days by HE staining based analysis; format: functional, organism-based; conditions: dose 10-20 mg/kg, time 28.0 day
A2780 [42] = assay: Antitumor activity against human A2780 cells xenografted in BALB/c female nude mouse assessed as irregular tumor shape at 10 to 20 mg/kg, ip administrated for 28 days by HE staining based analysis; format: functional, organism-based; conditions: dose 10-20 mg/kg, time 28.0 day
A2780 [43] = assay: Antitumor activity against human A2780 cells xenografted in BALB/c female nude mouse assessed as reduction in cells with hyaline cytoplasm at 10 to 20 mg/kg, ip administrated for 28 days by HE staining based analysis; format: functional, organism-based; conditions: dose 10-20 mg/kg, time 28.0 day
A2780 [44] = assay: Antitumor activity against human A2780 cells xenografted in BALB/c female nude mouse assessed as decrease in AKT positive cells at 10 to 20 mg/kg, ip administrated for 28 days by immunohistochemical analysis; format: functional, organism-based; conditions: dose 10-20 mg/kg, time 28.0 day
A2780 [45] = assay: Antitumor activity against human A2780 cells xenografted in BALB/c female nude mouse assessed as reduction in EGFR positive cells at 20 mg/kg, ip administrated for 28 days by immunohistochemical analysis; format: functional, organism-based; conditions: time 28.0 day
A2780 [46] = assay: Anticancer activity against human A2780 cells xenografted in BALB/c female nude mouse assessed as decrease in abundance of firmicutes at 10 to 20 mg/kg, ip administrated for 28 days; format: functional, organism-based; conditions: dose 10-20 mg/kg, time 28.0 day
A2780 [47] = assay: Anticancer activity against human A2780 cells xenografted in BALB/c female nude mouse assessed as increase in abundance of alistipes at 10 to 20 mg/kg, ip administrated for 28 days; format: functional, organism-based; conditions: dose 10-20 mg/kg, time 28.0 day
A2780 [48] = assay: Anticancer activity against human A2780 cells xenografted in BALB/c female nude mouse assessed as increase in intestinal microbial diversity at 10 to 20 mg/kg, ip administrated for 28 days; format: functional, organism-based; conditions: dose 10-20 mg/kg, time 28.0 day

C=C(C)[C@@H]1CCC(C)=C[C@H]1c1c(O)cc(CCCCC)cc1O [CANNABIDIOL]
Activity (A2780 [1]): Active | Activity (A2780 [2]): Dose-Dependent Effect | Activity (A2780 [3]): Tde | Activity (ES-2 [4]): Dose-Dependent Effect | Activity (ES-2 [5]): Tde | Activity (A2780 [6]): Dose-Dependent Effect | Activity (ES-2 [7]): Dose-Dependent Effect | Activity (A2780 [8]): 27% | Activity (ES-2 [9]): 24% | Activity (A2780 [10]): 75% | Activity (A2780 [11]): 62% | Activity (A2780 [12]): 52% | Activity (ES-2 [13]): 73% | Activity (ES-2 [14]): 53% | Activity (ES-2 [15]): 26% | Activity (A2780 [16]): 71% | Activity (A2780 [17]): 56% | Activity (A2780 [18]): 61% | Activity (ES-2 [19]): 80% | Activity (ES-2 [20]): 39% | Activity (ES-2 [21]): 32% | Activity (A2780 [22]): Dose-Dependent Effect | Activity (A2780 [23]): Dose-Dependent Effect | Activity (A2780 [24]): Dose-Dependent Effect | Activity (A2780 [25]): Dose-Dependent Effect | Activity (ES-2 [26]): Dose-Dependent Effect | Activity (ES-2 [27]): Dose-Dependent Effect | Activity (ES-2 [28]): Dose-Dependent Effect | Activity (ES-2 [29]): Dose-Dependent Effect | Activity [30]: 58% | Activity [31]: 77% | Activity [32]: 77% | Activity [33]: 79% | Activity [34]: 77% | Activity [35]: 81% | Activity (A2780 [36]): Active | Activity (A2780 [37]): Active | Activity (A2780 [38]): Active | Activity [39]: Non-Toxic | Activity [40]: Non-Toxic | Activity (A2780 [41]): Active | Activity (A2780 [42]): Active | Activity (A2780 [43]): Active | Activity (A2780 [44]): Active | Activity (A2780 [45]): Active | Activity (A2780 [46]): Active | Activity (A2780 [47]): Active | Activity (A2780 [48]): Active
